According to publication PMC12203311, “Design, synthesis, in silico and in vitro evaluation of pyrrole–indole hybrids as dual tubulin and aromatase inhibitors with potent anticancer activities” (RSC Advances, 2025):

How the values were obtained:
[1] = system: U251; assay: NCI60 five-dose screen; type: cell-based; details: Homo sapiens, U-251, U251, CNS cancer; for CC50: read-out: LC50 (the source's name)
[2] = system: SR; assay: NCI60 five-dose screen; type: cell-based; details: Homo sapiens, leukemia; for CC50: read-out: LC50 (the source's name)
[3] = system: SK-MEL-5; assay: NCI60 five-dose screen; type: cell-based, human; details: Homo sapiens; for CC50: SK-MEL-5, SK-MEL-5, melanoma, read-out: LC50 (the source's name); for GI50: SK-MEL-5, melanoma
[4] = system: HS 578T; assay: NCI60 five-dose screen; type: cell-based; details: Homo sapiens, breast cancer; for CC50: read-out: LC50 (the source's name)
[5] = biological target: T1, porcine brain tubulin (Sus scrofa, UniProt P02550+P02554); assay: Tubulin polymerisation assay (fluorescence-based); type: biochemical; details: 10 µM, 37 °C
T1 construct: a solution containing porcine brain tubulin (2 mg mL^−1); purchased Cytoskeleton BK011P; host or cells: porcine brain (tissue-purified)
Protocol: The tubulin polymerisation experimental protocol followed the method described in this literature.[28] The experimental was using fluorescence-based assay kit (Cytoskeleton, catalog no. BK011P). In Brief, 5 µL of test compounds was added to a 96-well plate, then mix with 50 µL of a solution containing porcine brain tubulin (2 mg mL^−1) in buffer with 20% glycerol and 1 mM GTP. A microplate reader (Varioskan™ LUX multimode microplate reader, Thermo Scientific™) was used to measure fluorescence intensity every 60 seconds for 60 minutes, with excitation at 360 nm and emission at 450 nm, maintained at 37 °C throughout the experiment.

[6] = system: HCT-116; assay: NCI60 five-dose screen; type: cell-based; details: Homo sapiens, HCT-116, colon cancer; for CC50: read-out: LC50 (the source's name)
[7] = system: NCI-H322M; assay: NCI60 five-dose screen; type: cell-based; details: Homo sapiens, NSC lung cancer; for CC50: read-out: LC50 (the source's name)
[8] = system: SNB-75; assay: NCI60 five-dose screen; type: cell-based; details: Homo sapiens, SNB-75, CNS cancer; for CC50: read-out: LC50 (the source's name)
[9] = system: MOLT-4; assay: NCI60 five-dose screen; type: cell-based; details: Homo sapiens, MOLT-4, leukemia; for CC50: read-out: LC50 (the source's name)
[10] = system: IGROV1; assay: NCI60 five-dose screen; type: cell-based; details: Homo sapiens, IGROV-1; IGROV1, ovarian cancer
[11] = system: KM12; assay: NCI60 five-dose screen; type: cell-based; details: Homo sapiens, KM12, colon cancer; for CC50: read-out: LC50 (the source's name)
[12] = system: OVCAR-4; assay: NCI60 five-dose screen; type: cell-based; details: Homo sapiens, OVCAR-4, ovarian cancer; for CC50: read-out: LC50 (the source's name)

T1 sequence (P02554 whole entry): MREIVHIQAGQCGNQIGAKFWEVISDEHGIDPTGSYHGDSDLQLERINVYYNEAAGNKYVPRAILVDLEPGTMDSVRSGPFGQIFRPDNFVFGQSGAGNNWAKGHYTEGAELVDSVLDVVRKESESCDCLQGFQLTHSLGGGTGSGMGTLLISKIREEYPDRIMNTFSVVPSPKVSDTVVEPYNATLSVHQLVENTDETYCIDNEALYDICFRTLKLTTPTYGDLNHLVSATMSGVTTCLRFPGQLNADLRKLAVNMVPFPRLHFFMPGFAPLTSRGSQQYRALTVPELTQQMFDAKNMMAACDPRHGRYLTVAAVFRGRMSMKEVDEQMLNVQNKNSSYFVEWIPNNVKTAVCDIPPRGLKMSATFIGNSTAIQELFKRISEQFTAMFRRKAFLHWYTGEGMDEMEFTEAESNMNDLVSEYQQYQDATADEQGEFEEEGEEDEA
T1 sequence (P02550 whole entry): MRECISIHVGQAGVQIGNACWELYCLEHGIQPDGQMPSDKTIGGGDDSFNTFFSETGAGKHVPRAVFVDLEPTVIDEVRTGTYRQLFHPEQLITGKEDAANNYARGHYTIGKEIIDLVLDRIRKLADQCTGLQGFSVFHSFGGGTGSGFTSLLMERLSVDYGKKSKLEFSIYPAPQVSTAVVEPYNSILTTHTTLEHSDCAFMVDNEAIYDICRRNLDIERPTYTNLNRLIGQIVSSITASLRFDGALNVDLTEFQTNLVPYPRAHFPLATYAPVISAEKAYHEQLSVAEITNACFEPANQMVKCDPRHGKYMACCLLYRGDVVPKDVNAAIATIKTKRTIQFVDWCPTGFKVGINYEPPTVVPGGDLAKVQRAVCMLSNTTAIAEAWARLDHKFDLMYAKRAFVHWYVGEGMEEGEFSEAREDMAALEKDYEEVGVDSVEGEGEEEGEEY

Question: What does the source list for `O=C(N/N=C/c1cc([N+](=O)[O-])c[nH]1)c1[nH]c2ccc(Br)cc2c1-c1ccccc1` [Derivative 3q, (E)-5-Bromo-N′-((4-nitro-1H-pyrrol-2-yl)methylene)-3-phenyl-1H-indole-2-carbohydrazide]?
Answer: GI50 [1]: 574 nM; CC50 [1]: 66.8 µM; GI50 [2]: 405 nM; CC50 [2]: > 100 µM; CC50 [3]: 69.9 µM; GI50 [3]: 671 nM; GI50 [4]: 486 nM; CC50 [4]: > 100 µM; tubulin inhibition [5]: no tubulin inhibition properties; GI50 [6]: 491 nM; CC50 [6]: > 100 µM; GI50 [7]: 46400 nM; CC50 [7]: > 100 µM; GI50 [8]: 242 nM; CC50 [8]: > 100 µM; GI50 [9]: 657 nM; CC50 [9]: > 100 µM; GI50 [10]: 2060 nM; GI50 [11]: 1390 nM; CC50 [11]: > 100 µM; GI50 [12]: 1060 nM; CC50 [12]: > 100 µM

Question: What does the source list for `O=C(N/N=C/c1cc(Br)c[nH]1)c1[nH]c2ccc(Br)cc2c1-c1ccccc1` [Derivative 3e, (E)-5-Bromo-N′-((4-bromo-1H-pyrrol-2-yl)methylene)-3-phenyl-1H-indole-2-carbohydrazide]?
Answer: GI50 [1]: 418 nM; CC50 [1]: 10.1 µM; CC50 [3]: 1.22 µM; GI50 [3]: 195 nM; GI50 [4]: 340 nM; CC50 [4]: > 100 µM; RFU in tubulin polymerization assay [5]: ~50 arbitrary units; GI50 [6]: 242 nM; CC50 [6]: 85 µM; GI50 [7]: 578 nM; CC50 [7]: 38.8 µM; GI50 [8]: 475 nM; CC50 [8]: 51 µM; GI50 [9]: 375 nM; CC50 [9]: > 100 µM; GI50 [10]: 440 nM; GI50 [11]: 301 nM; CC50 [11]: 16.3 µM; GI50 [12]: 1350 nM; CC50 [12]: 40.5 µM

Question: What does the source list for `CCc1c[nH]c(/C=N/NC(=O)c2[nH]c3ccc(Br)cc3c2-c2ccccc2)c1` [Derivative 3t, (E)-5-Bromo-N′-((4-ethyl-1H-pyrrol-2-yl)methylene)-3-phenyl-1H-indole-2-carbohydrazide]?
Answer: GI50 [1]: 373 nM; CC50 [1]: 38.2 µM; GI50 [2]: 446 nM; CC50 [2]: > 100 µM; CC50 [3]: 6.96 µM; GI50 [3]: 279 nM; GI50 [4]: 300 nM; CC50 [4]: 87.3 µM; RFU in tubulin polymerization assay [5]: ~55 arbitrary units; GI50 [6]: 385 nM; CC50 [6]: 40.3 µM; GI50 [7]: 2310 nM; CC50 [7]: 49.8 µM; GI50 [8]: 440 nM; CC50 [8]: 37.8 µM; GI50 [9]: 399 nM; CC50 [9]: 94.2 µM; GI50 [10]: 888 nM; LC50 (concentration causing 50% net cell kill) [10]: 48.6 µM; GI50 [11]: 325 nM; CC50 [11]: 34.4 µM; GI50 [12]: 2170 nM; CC50 [12]: 43 µM

Question: `Cn1cccc1/C=N/NC(=O)c1[nH]c2ccc(Br)cc2c1-c1ccccc1` [Derivative 3d, (E)-5-Bromo-N′-((1-methyl-1H-pyrrol-2-yl)methylene)-3-phenyl-1H-indole-2-carbohydrazide] was tested. Which GI50 [1] did it give?
Answer: 477 nM

Question: What about the CC50 [1] of the same compound?
Answer: > 100 µM

Question: What about the CC50 [3] of the same compound?
Answer: > 100 µM

Question: And the GI50 [3]?
Answer: 196 nM

Question: What about the GI50 [4] of the same compound?
Answer: 220 nM

Question: And the CC50 [4]?
Answer: > 100 µM

Question: And the “tubulin inhibition” value [5]?
Answer: weak tubulin inhibitors

Question: And the GI50 [6]?
Answer: 427 nM

Question: And the CC50 [6]?
Answer: > 100 µM

Question: What about the GI50 [7] of the same compound?
Answer: 1980 nM

Question: And the CC50 [7]?
Answer: > 100 µM

Question: And the GI50 [8]?
Answer: 259 nM

Question: And the CC50 [8]?
Answer: > 100 µM

Question: What about the GI50 [9] of the same compound?
Answer: 438 nM

Question: And the CC50 [9]?
Answer: > 100 µM

Question: And the GI50 [10]?
Answer: 621 nM

Question: What about the GI50 [11] of the same compound?
Answer: 357 nM

Question: And the CC50 [11]?
Answer: > 100 µM

Question: And the GI50 [12]?
Answer: 637 nM

Question: What about the CC50 [12] of the same compound?
Answer: > 100 µM

Question: `O=C(N/N=C/c1cc[nH]c1)c1[nH]c2ccc(Br)cc2c1-c1ccccc1` [Derivative 3b, (E)-N′-((1H-Pyrrol-3-yl)methylene)-5-bromo-3-phenyl-1H-indole-2-carbohydrazide] was tested. Which GI50 [1] did it give?
Answer: 2080 nM

Question: What about the CC50 [1] of the same compound?
Answer: 40.8 µM

Question: And the CC50 [3]?
Answer: 14.6 µM

Question: What about the GI50 [3] of the same compound?
Answer: 1100 nM

Question: And the GI50 [4]?
Answer: 1310 nM

Question: And the CC50 [4]?
Answer: > 100 µM

Question: What about the “tubulin inhibition” value [5] of the same compound?
Answer: weak tubulin inhibitors

Question: And the GI50 [6]?
Answer: 991 nM

Question: What about the CC50 [6] of the same compound?
Answer: > 100 µM

Question: What about the GI50 [7] of the same compound?
Answer: 2380 nM

Question: What about the CC50 [7] of the same compound?
Answer: 37.2 µM

Question: And the GI50 [8]?
Answer: 880 nM

Question: What about the CC50 [8] of the same compound?
Answer: 32 µM

Question: What about the GI50 [9] of the same compound?
Answer: 1520 nM

Question: What about the CC50 [9] of the same compound?
Answer: > 100 µM

Question: What about the GI50 [10] of the same compound?
Answer: 1270 nM

Question: What about the GI50 [11] of the same compound?
Answer: 996 nM

Question: What about the CC50 [11] of the same compound?
Answer: 37.8 µM

Question: And the GI50 [12]?
Answer: 4820 nM

Question: And the CC50 [12]?
Answer: 45.2 µM
